# Results published in patent publication US12077527B2, “Compositions and methods for inhibiting ACSS2” (THE TRUSTEES OF THE UNIVERSITY OF PENNSYLVANIA, priority 2017, dated 2024).
# Experiments:
# ACSS2 = target: T1, ACSS2 (Mus musculus, UniProt Q9QXG4); assay: Incorporation of alcohol-derived heavy acetyl groups into brain histone acetylation (Example 6); type: in vivo; details: mice treated with ACSS2 inhibitor
# T1 construct: from tissue; host or cells: brain (hippocampus) of living mice
# Protocol: To investigate the direct role of ACSS2 in alcohol-dependent acetylation in the brain, mice are treated with an ACSS2 inhibitor, ADG-204, ADG-205, ADG-206, or ADG-207. […] In contrast, in control mice, vHPC incorporation of the heavy label is not affected. Thus, acetate derived from hepatic alcohol metabolism is transported to the brain and readily incorporated into histone acetylation.
# [1] = tested on: differentiated CAD neurons; assay: RNA-seq of differentiated CAD neurons treated with ACSS2i; type: cell-based, mouse
# Protocol: (§1) CAD cells (Cath.-a-differentiated) were grown in Dulbecco's modified Eagle's medium (DMEM):Ham's F12 (1:1), supplemented with 2 mM glutamine, 1% penicillin/streptomycin, and 10% fetal bovine serum (FBS). To induce neuronal differentiation, sub-confluent CAD cell cultures (50-60%) were transferred to serum-free medium (DMEM:Ham's F12 (1:1) supplemented with 2 mM glutamine) and maintained in […] culture dishes for 5 days. […] For knockdown experiments, CAD cells were infected with lentiviral hairpin constructs (TRC collection) designed against ACL (#TRCN0000055217) or ACSS2 (#TRCN0000076124, #TRCN0000076125) in medium containing […] polybrene and 10% FBS for 24 hours. Cells then underwent selection in culture medium supplemented with 0.5 mg/mL puromycin for 5 days to obtain a stably infected population. Cell treatment with ACSS2i (1-(2,3-di(thiophen-2-yl)quinoxalin-6-yl)-3-(2-methoxyethyl)urea (DMSO)) was carried out for 24 hours at a final concentration of 20 μM (treatment with DMSO alone served as control).
# To generate libraries for RNA-seq, poly(A)^+ RNA was extracted using the Dynabeads mRNA Direct kit (Ambion) according to the manufacturer's instructions. […] The quantity and quality of the libraries were assessed by BioAnalyzer (Agilent) and qPCR (Kapa Biosystems). The multiplexed libraries were pooled and sequenced on a single lane on the Illumina NextSeq 500 platform (50 bp, single-end reads). […] The aligned reads were mapped to genomic features using cufflinks-2.2.1, (-G parameter to quantify only known features), and iGenomes mml0 UCSC genomic transcript loci. The rRNA, […], and tRNA of the mouse genome were downloaded from the goldenPath UCSC FTP and were masked from the transcript quantification. After quantification, all data processing was done using python pandas library v.0.14.0. […] The statistical significance of the trend and reproducibility were assessed by taking the top 20% of genes by loss of expression in the knockdown and comparing the expression of these genes in inhibitor-treated cells to a random sample of genes outside this set (Mann-Whitney test).
# [2] = tested on: primary hippocampal neurons; assay: Western blots of lysates from primary hippocampal neurons treated with ACSS2i; type: cell-based, mouse; details: day 7 neurons, ACSS2i 24 hours, western blot
# Protocol: Cells were lysed in buffer containing 50 mM Tris pH 8.0, 0.5 mM EDTA, 150 mM NaCl, 1% NP40, 1% SDS, supplemented with protease inhibitor cocktail (Life Technologies, number 78446). For subcellular fractionation experiments, the cells were processed using the subcellular fractionation kit for cultured cells (Thermo Scientific, number 78840) according to the manufacturer's instructions. Protein concentration was determined by BCA protein assay (Life Technologies, number 23227), and equal amounts of protein were used in co-immunoprecipitation experiments or directly loaded onto polyacrylamide gels. The endogenous co-immunoprecipitation experiments were performed using antibody-conjugated protein A Dynabeads (Life Technologies) in buffer containing: 20 mM Tris, pH 8.0, 137 mM NaCl, 1 mM MgCl2, 1 mM CaCl2, 1% NP-40, 10% glycerol, with protease and phosphatase inhibitors, and 12.5 U/mL benzonase (Novagen, 70746). Proteins or co-immunoprecipitation eluates were loaded and separated on 4-12% Bis-Tris polyacrylamide gels (NuPAGE). After transfer to nitrocellulose membrane, 3% BSA in TBS supplemented with 0.1% Tween 20 (TBST) was used to block the membrane at room temperature for 1 hour. Primary antibodies were diluted in TBST, and incubated at 4° C. overnight. Primary antibodies are listed below. The membrane was washed three times with TBST, each for 10 min, followed by incubation with HRP-conjugated secondary antibodies at room temperature for 1 hour, in TBST. The membrane was washed again three times, and imaged with a Fujifilm LAS-4000 imager. Original gel blots are provided as FIGS. 14-16. […]
# [3] = tested on: differentiated CAD neurons; assay: Nuclear acetyl-CoA quantification (PicoProbe assay) in differentiated CAD neurons; type: cell-based, mouse; details: versus control, n=3
# Protocol: as §1
# To extract and quantify acetyl-CoA from differentiated CAD neurons, 4×10^6 cells were washed and incubated in lysis buffer for 30 min (10 mM Tris pH 8, 1 mM KCl, 1.5 mM MgCl2, 1 mM DTT). […] The PicoProbe assay was performed in 96-well clear-bottom plates, and the resulting fluorescence was quantified using the Synergy HTX Multi-Mode Microplate Reader (BioTek Instruments).
# [4] = tested on: primary hippocampal neurons; assay: RNA-seq of acetate-treated primary hippocampal neurons with or without ACSS2i; type: cell-based, mouse
# Protocol: All RNA-seq data were prepared for analysis as follows: NextSeq sequencing data was demultiplexed using native apps on BaseSpace. Demultiplexed FASTQs were aligned by RNA-STAR 2.5.2 to assembly mml0 (GRCm38). Aligned reads were mapped to genomic features using HTSeq 0.6.1. Quantification, library size adjustment, and differential gene expression analysis was done using DESeq2 and Wald's test (pairwise contrasts between acetate and DMSO-treatment in the inhibitor-treated or untreated cells, followed by a set overlap of differentially expressed genes). Gene list overlaps were tested for significance using the hypergeometric test.
# Next, the functional relevance of alcohol-derived acetate for ACSS2-dependent histone acetylation in regulating hippocampal gene expression was examined (FIG. 23E, right). […] However, in line with the ChIP-seq data, this response was markedly blunted in ACSS2 KD mice. […] Because alcohol and acetate have pleiotropic effects on brain circuitry and metabolism, an in vitro assay was then developed to more closely model the direct effects of exogenous acetate on gene expression. […]
# T1 sequence (Q9QXG4 whole entry): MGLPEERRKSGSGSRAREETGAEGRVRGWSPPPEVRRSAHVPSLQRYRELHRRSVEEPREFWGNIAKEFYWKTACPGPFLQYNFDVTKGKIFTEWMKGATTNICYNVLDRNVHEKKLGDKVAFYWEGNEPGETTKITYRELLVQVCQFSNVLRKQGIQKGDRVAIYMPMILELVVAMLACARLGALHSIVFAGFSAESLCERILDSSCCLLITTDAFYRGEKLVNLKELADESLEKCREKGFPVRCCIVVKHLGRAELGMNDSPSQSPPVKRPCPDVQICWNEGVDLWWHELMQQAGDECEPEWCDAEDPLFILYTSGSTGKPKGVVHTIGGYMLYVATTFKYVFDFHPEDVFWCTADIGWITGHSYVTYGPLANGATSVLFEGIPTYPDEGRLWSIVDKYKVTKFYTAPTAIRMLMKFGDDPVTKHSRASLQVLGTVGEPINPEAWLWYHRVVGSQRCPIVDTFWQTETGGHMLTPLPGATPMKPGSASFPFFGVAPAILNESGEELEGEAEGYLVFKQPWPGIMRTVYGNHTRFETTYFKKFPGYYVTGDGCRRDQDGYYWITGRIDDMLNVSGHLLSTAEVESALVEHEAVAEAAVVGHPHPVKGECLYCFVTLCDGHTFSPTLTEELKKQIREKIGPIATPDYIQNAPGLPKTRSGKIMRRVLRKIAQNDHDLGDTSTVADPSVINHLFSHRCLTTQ
structure (smiles),measurement,setting,value
"CNC(=O)Nc1ccc2nc(-c3cccs3)c(-c3cccs3)nc2c1 [ADG-206, 1-(2,3-di(thiophen-2-yl)quinoxalin-6-yl)-3-methylurea]",incorporation of alcohol-derived heavy acetyl groups into histone acetylation,ACSS2,prevents the incorporation of alcohol-derived heavy acetyl groups into histone acetylation
"COCCNC(=O)Nc1ccc2nc(-c3cccs3)c(-c3cccs3)nc2c1 [ADG-205, 1-(2,3-di(thiophen-2-yl)quinoxalin-6-yl)-3-(2-methoxyethyl)urea]",incorporation of alcohol-derived heavy acetyl groups into histone acetylation,ACSS2,prevents the incorporation of alcohol-derived heavy acetyl groups into histone acetylation
"COCCNC(=O)Nc1ccc2nc(-c3cccs3)c(-c3cccs3)nc2c1 [ACSS2i, 1-(2,3-di(thiophen-2-yl)quinoxalin-6-yl)-3-(2-methoxyethyl)urea]",expression of differentiation-induced genes (RNA-seq),[1]; 24-hour ACSS2i 20 μM vs DMSO,a reduction in differentiation-induced genes
same,"expression of ND genes (genes linked to neuronal differentiation, 1,315 genes)",[1]; ACSS2i-treated vs DMSO-treated CAD neurons,markedly reduced
same,genes that showed reduced expression upon ACSS2i treatment,"[1]; RNA-seq, 24-hour ACSS2i 20 μM vs DMSO",299 genes
same,ACSS2 levels,[2],without lowering ACSS2 levels
same,histone acetylation,[2],reduced
same,neuronal marker expression,[2],reduced
same,"Nuclear acetyl-CoA levels, mean Δ",[3],−0.25±0.05
same,regulation of acetate-induced genes by ACSS2i,[4]; in the absence of acetate,not regulated
same,acetate-induced genes that failed to become upregulated in the presence of ACSS2i,"[4]; of 3613 acetate-induced genes, 10 mM acetate 24 hours",2107 genes
"O=C(Nc1ccc2nc(-c3cccs3)c(-c3cccs3)nc2c1)NC12CC3CC(CC(C3)C1)C2 [ADG-207, 1-((1S,3s)-adamantan-1-yl)-3-(2,3-di(thiophen-2-yl)quinoxalin-6-yl)urea]",incorporation of alcohol-derived heavy acetyl groups into histone acetylation,ACSS2,prevents the incorporation of alcohol-derived heavy acetyl groups into histone acetylation
"CCCCCNC(=O)Nc1ccc2nc(-c3cccs3)c(-c3cccs3)nc2c1 [ADG-204, 1-(2,3-di(thiophen-2-yl)quinoxalin-6-yl)-3-penlylurea]",incorporation of alcohol-derived heavy acetyl groups into histone acetylation,ACSS2,prevents the incorporation of alcohol-derived heavy acetyl groups into histone acetylation
